This assay has as its target T1, human GPR40 (Homo sapiens, UniProt O14842).
T1 construct: expressed in transfected cells; host or cells: CHO cell line stably expressing human GPR40
Nature of the assay: Receptor function modulating action (agonist action) against human-derived GPR40: intracellular calcium change by FLIPR in CHO cells stably expressing human GPR40. It is filed as cell-based. The method, then:
Receptor Function Modulating Action (Agonist Action) against Human-Derived GPR40 For determination of agonist activity, CHO cell line that stably expressed human GPR40 was used. […] The cells cultured to nearly confluent were rinsed with PBS (Invitrogen) on the previous day of the assay, peeled off with EDTA ([…], Wako Junyaku) and recovered by centrifugation. The number of the obtained cells was counted, and the cells were diluted such that 3×10^5 cells were contained per 1 mL of the medium, dispensed to a 96 well black clear bottom plate (coaster) by 100 μL per well and cultured overnight in a CO2 incubator. Various test compounds were added to the CHO cells thus prepared, and the changes in the intracellular calcium concentration were measured using FLIPR (Molecular Device). The below-mentioned pre-treatment was applied to measure changes in the intracellular calcium concentration by FLIPR. […] A fluorescence dye solution was prepared by adding 500 μM probenecid dissolved in 1N NaOH to the assay buffer to a final concentration of […], and adding the solution (10 mL) to 1 vial of component A (Molecular Device). One day before the assay, the medium of CHO cells re-plated on a 96 well black clear bottom plate was removed, and the cells were washed with D-PBS(−). […] Then, the fluorescence dye solution was dispensed by 100 μL per well, and the cells were cultured in a CO2 incubator for 1 hr to allow uptake of the fluorescence dye by the cells. During this period, the test compound was diluted to a given concentration with the assay buffer, and dispensed to a polypropylene 96-well plate (sample plate) by 100 μL. The cell plate and the sample plate were simultaneously set on FLIPR. After the above-mentioned pre-treatment, variation in the intracellular calcium concentration after addition of various test compounds (50 μL) was measured by FLIPR.
For orientation: A change in cytosolic calcium serves as a functional read-out for many receptors and channels.

The mark [1] stands for this setting: agonist activity of each compound at 1 μM, relative to the activity of 10 μM γ-linolenic acid as 100%, CHO cell line stably expressing human GPR40.

Structures can show the parent of a compound that is named as a salt.

T1 sequence (O14842 whole entry): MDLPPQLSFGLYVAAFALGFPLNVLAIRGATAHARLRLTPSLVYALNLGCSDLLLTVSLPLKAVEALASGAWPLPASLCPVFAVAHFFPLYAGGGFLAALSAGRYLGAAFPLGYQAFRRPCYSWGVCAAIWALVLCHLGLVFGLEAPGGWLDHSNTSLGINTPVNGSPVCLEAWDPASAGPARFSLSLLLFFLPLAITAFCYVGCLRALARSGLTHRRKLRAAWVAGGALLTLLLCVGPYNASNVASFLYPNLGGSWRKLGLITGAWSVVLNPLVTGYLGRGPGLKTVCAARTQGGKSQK

For the molecule `CCOCCOc1cc(C)c(-c2cccc(COc3ccc(C4CC4C(=O)O)cc3)c2)c(C)c1` (centres unmarked) [Example 2, 2-(4-{[4′-(2-ethoxyethoxy)-2′,6′-dimethylbiphenyl-3-yl]methoxy}phenyl)cyclopropanecarboxylic acid], the Relative activity value under setting [1] worked out at 111%.

As to `CCOCCOc1cc(C)c(-c2cccc(COc3ccc(C4CC4C(=O)O)cc3)c2)c(C)c1` (centres unmarked) [Example 3, 2-(4-{[4′-(2-ethoxyethoxy)-2′,6′-dimethylbiphenyl-3-yl]methoxy}phenyl)cyclopropanecarboxylic acid calcium salt], the Relative activity value (agonist activity of each compound at 1 μM, relative to the activity of 10 μM γ-linolenic acid as 100%, CHO cell line stably expressing human GPR40, calcium salt) was 103%.

As for `Cc1cc(OC2CCS(=O)(=O)CC2)cc(C)c1-c1cccc(COc2ccc(C3CC3C(=O)O)cc2)c1` (centres unmarked) [Example 5, 2-[4-({4′-[(1,1-dioxidotetrahydro-2H-thiopyran-4-yl)oxy]-2′,6′-dimethylbiphenyl-3-yl}methoxy)phenyl]cyclopropanecarboxylic acid], under setting [1], the Relative activity value was found to be 108%.

As for `Cc1cc(OCC2(C)COC2)cc(C)c1-c1cccc(COc2ccc(C3CC3C(=O)O)cc2)c1` (centres unmarked) [Example 7, 2-[4-({2′,6′-dimethyl-4′-[(3-methyloxetan-3-yl)methoxy]biphenyl-3-yl}methoxy)phenyl]cyclopropanecarboxylic acid], the Relative activity value under setting [1] is 119%.

As to `CC(C)CCN(Cc1ccc(COc2ccc(C3CC3C(=O)O)cc2)cc1)c1nc(-c2ccc(C(F)(F)F)cc2)cs1` (centres unmarked) [Example 9], the Relative activity value under setting [1] came to 99%.

Consider `CCCN(Cc1ccc(COc2ccc(C3CC3C(=O)O)cc2)cc1)c1nc(-c2ccc(C(F)(F)F)cc2)cs1` (centres unmarked) [Example 11, 2-[4-({4-[(propyl{4-[4-(trifluoromethyl)phenyl]-1,3-thiazol^-2-yl}amino)methyl]benzyl}oxy)phenyl]cyclopropanecarboxylic acid], for which the Relative activity value under setting [1] is reported as 114%.

In the case of `O=C(O)C1CC1c1ccc(OCc2cccc(Oc3ccccc3)c2)cc1` (centres unmarked) [Example 13, 2-{4-[(3-phenoxybenzyl)oxy]phenyl)cyclopropanecarboxylic acid], the Relative activity value under setting [1] was determined as 109%.

With `CCCCC/C=C\C/C=C\C/C=C\CCCCC(=O)O` [γ-linolenic acid, reference compound], the Relative activity value (reference: activity of 10 μM γ-linolenic acid (GPR40 agonist) set as 100%, CHO cell line stably expressing human GPR40) is on record as 100%.

For the origin of these results see patent US8153694B2, “Cyclopropanecarboxylic acid compound” (Takeda Pharmaceutical Company Limited, priority 2005, dated 2012).
